Article PMC4931252 (Nature Communications, 2016)

Molecular target: T1, prion protein PrP (PrP^C, SHaPrP) (Mesocricetus auratus, UniProt P04273)
T1 construct: gene PRNP
Type: binding

T1 sequence (P04273 90-231 limits assumed): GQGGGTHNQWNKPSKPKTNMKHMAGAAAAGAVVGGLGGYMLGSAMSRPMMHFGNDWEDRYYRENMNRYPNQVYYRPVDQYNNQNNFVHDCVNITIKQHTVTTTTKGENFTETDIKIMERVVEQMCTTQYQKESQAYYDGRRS

## C[n+]1ccc(-c2c3nc(c(-c4cc[n+](C)cc4)c4ccc([nH]4)c(-c4cc[n+](C)cc4)c4nc(c(-c5cc[n+](C)cc5)c5ccc2[nH]5)C=C4)C=C3)cc1.[Fe+3] [Fe-TMPyP, iron(III) meso-tetra (N-methyl-4-pyridyl-porphine)]
  Kd: 9 ± 3 µM
